Results: patent US9511010B2, “Compounds useful in the treatment and/or care of the skin, hair and/or mucous membranes and their cosmetic or pharmaceutical compositions” (Lubrizol Advanced Materials, Inc., priority 2012, dated 2016)

Columns and labels:
FOXO response elements = assay: Stimulation of the expression of proteins regulated by FOXO: luciferase reporter under FOXO response elements; type: cell-based, human; details: 0.5 mg/mL, 24 hours; carrier (0.05% DMSO) = 100
Experimental: The activation capacity of the FOXO response elements was evaluated in a human epithelial cell line stably transfected with the luciferase gene under the control of a regulatory sequence which contains different FOXO response elements which are in the promoters of the FOXO target genes. The activation capacity of the FOXO response elements indicates the expression of proteins regulated by FOXO. 30,000 cells per well were seeded in a total volume of 100 μL of RPMI 1640 culture medium. After 24 hours the cells with RPMI 1640 culture medium were washed and were incubated with the compounds of the invention at 0.5 mg/mL for 24 hours in a total volume of 100 μL per well. The carrier in which the compounds of the invention were dissolved was used (0.05% DMSO) as a negative control.
The measurement of the activity of the promoter was carried out using the Steady-Go Luciferase Assay System kit following the manufacturer's instructions. The luminescence values (RLU/sec) caused by the reaction between luciferase and the substrate were quantified with a luminometer and normalized by the cell number (absorbance at 630 nm), and the activity of the promoter was determined, which was standardized with regard to the negative control values.
(§1) Each experiment was carried out three times in 3 independent experiments.

[1] = tested on: HEKa primary keratinocytes; assay: Host cell reactivation (HCR) assay, activation of DNA repair in primary keratinocytes; type: cell-based, human; details: 24 hours, basal = 100
Experimental: The host cell reactivation (HCR) assay was used in HEKa primary keratinocytes to evaluate the capacity of the peptides of the invention to repair the damage to the DNA in a biologically functional way. 40,000 cells per well were seeded and they were co-transfected with a control plasmid which constitutively expresses the Firefly luciferase gene (pGL3), previously damaged by UVC, and with an undamaged plasmid which constitutively expresses the Renilla luciferase gene (vector pRluc-N1(h)).
Subsequently the cells were incubated with the compounds of the invention at 0.025 mg/mL and 0.5 mg/mL in EpiLife medium for 24 hours, after which the luminescence due to the activity of the Firefly and Renilla luciferases was measured using the Dual-Go Luciferase Assay System kit following the manufacturer's instructions. The carrier in which the compounds of the invention (EpiLife medium) were dissolved was used as a negative control. The activation percentage of the DNA repair for each sample was calculated standardizing the luminescence values of the Firefly luciferase with regard to the Renilla luciferase, subsequently standardizing with regard to the values of the negative control.
as §1

Stimulation Average (%) of the activation of the FOXO response factors (FOXO response elements) [%] | Substance | Activation Average (%) of DNA repair, HCR assay ([1]; 0.025 mg/mL) [%] | Activation Average (%) of DNA repair, HCR assay ([1]; 0.5 mg/mL) [%]
133 | Ac-L-Tyr-L-Glu-L-Ser-L-Lys-L-Gln-L-Val-NH2 (Ac-YESKQV-NH2) [Ac-SEQ ID NO: 24-NH2] | 295 | 271
157 | Ac-L-Tyr-L-Asn-L-Lys-L-Leu-L-Gln-L-Val-NH2 (Ac-YNKLQV-NH2) [Ac-SEQ ID NO: 21-NH2] | 231 | 357
129 | Ac-L-Tyr-L-Asn-L-Ser-L-His-L-Gln-L-Val-NH2 (Ac-YNSHQV-NH2) [Ac-SEQ ID NO: 41-NH2] |  | 
145 | Ac-L-Tyr-L-Glu-L-Ser-L-His-L-Gln-L-Val-NH2 (Ac-YESHQV-NH2) [Ac-SEQ ID NO: 19-NH2] | 191 | 304
124 | Ac-L-Tyr-L-His-L-Ser-L-Lys-L-Gln-L-Val-NH2 (Ac-YHSKQV-NH2) [Ac-SEQ ID NO: 26-NH2] |  | 
120 | Ac-L-Tyr-L-Tyr-L-Pro-L-His-L-Gln-L-Val-NH2 (Ac-YYPHQV-NH2) [Ac-SEQ ID NO: 29-NH2] |  | 
174 | Ac-L-Tyr-L-Tyr-L-Lys-L-Leu-L-Gln-L-Val-NH2 (Ac-YYKLQV-NH2) [Ac-SEQ ID NO: 23-NH2] |  | 
133 | Ac-L-Tyr-L-Tyr-L-Pro-L-Lys-L-Gln-L-Val-NH2 (Ac-YYPKQV-NH2) [Ac-SEQ ID NO: 42-NH2] |  | 
106 | Ac-L-Tyr-L-Asn-L-Lys-L-Lys-L-Gln-L-Val-NH2 (Ac-YNKKQV-NH2) [Ac-SEQ ID NO: 8-NH2] |  | 
138 | Ac-L-Tyr-L-His-L-Ser-L-His-L-Gln-L-Val-NH2 (Ac-YHSHQV-NH2) [Ac-SEQ ID NO: 30-NH2] |  | 
143 | Ac-L-Tyr-L-Asn-L-Lys-Gly-L-Gln-L-Val-NH2 (Ac-YNKGQV-NH2) [Ac-SEQ ID NO: 1-NH2] | 150 | 290
157 | Ac-L-Tyr-L-Tyr-L-Ser-L-His-L-Gln-L-Val-NH2 (Ac-YYSHQV-NH2) [Ac-SEQ ID NO: 20-NH2] |  | 
125 | Ac-L-Tyr-L-His-L-Pro-L-His-L-Gln-L-Val-NH2 (Ac-YHPHQV-NH2) [Ac-SEQ ID NO: 28-NH2] |  | 
131 | Ac-L-Tyr-L-Glu-L-Pro-L-His-L-Gln-L-Val-NH2 (Ac-YEPHQV-NH2) [Ac-SEQ ID NO: 40-NH2] |  | 
148 | Ac-L-Tyr-L-Asn-L-Pro-L-His-L-Gln-L-Val-NH2 (Ac-YNPHQV-NH2) [Ac-SEQ ID NO: 18-NH2] |  | 
168 | Ac-L-Tyr-L-His-L-Lys-L-Leu-L-Gln-L-Val-NH2 (Ac-YHKLQV-NH2) [Ac-SEQ ID NO: 25-NH2] |  | 
128 | Ac-L-Tyr-L-Asn-L-Ser-L-Lys-L-Gln-L-Val-NH2 (Ac-YNSKQV-NH2) [Ac-SEQ ID NO: 27-NH2] |  | 
119 | Ac-L-Tyr-L-Glu-L-Ser-Gly-L-Gln-L-Val-NH2 (Ac-YESGQV-NH2) [Ac-SEQ ID NO: 16-NH2] |  | 
